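Values below derive from 48-hour exposures of cells grown in 96-well plates, with endpoints linearly interpolated between the two concentrations bracketing the appropriate inhibition level. At the TGI there is no net growth.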
What was measured:
Assay in all cases: NCI tumour cell line growth inhibition, 48 h
786-0 renal = tested on: 786-0 renal
A549 NSCLC = tested on: A549 NSCLC
ACHN renal = tested on: ACHN renal
BT-549 breast = tested on: BT-549 breast
CAKI-1 renal = tested on: CAKI-1 renal
CCRF-CEM leukemia = tested on: CCRF-CEM leukemia
COLO 205 colon = tested on: COLO 205 colon
DU-145 prostate = tested on: DU-145 prostate
EKVX NSCLC = tested on: EKVX NSCLC
HCC-2998 colon = tested on: HCC-2998 colon
HCT-116 colon = tested on: HCT-116 colon
HCT-15 colon = tested on: HCT-15 colon
HL-60(TB) leukemia = tested on: HL-60(TB) leukemia
HOP-62 NSCLC = tested on: HOP-62 NSCLC
HOP-92 NSCLC = tested on: HOP-92 NSCLC
HT29 colon = tested on: HT29 colon
IGROV1 ovarian = tested on: IGROV1 ovarian
K-562 leukemia = tested on: K-562 leukemia
KM12 colon = tested on: KM12 colon
LOX IMVI melanoma = tested on: LOX IMVI melanoma
M14 melanoma = tested on: M14 melanoma
MALME-3M melanoma = tested on: MALME-3M melanoma
MCF7 breast = tested on: MCF7 breast
MDA-N = tested on: MDA-N
MOLT-4 leukemia = tested on: MOLT-4 leukemia
NCI-H226 lung = tested on: NCI-H226 lung
NCI-H23 lung = tested on: NCI-H23 lung
NCI-H460 lung = tested on: NCI-H460 lung
NCI-H522 lung = tested on: NCI-H522 lung
NCI/ADR-RES ovarian = tested on: NCI/ADR-RES ovarian
OVCAR-3 ovarian = tested on: OVCAR-3 ovarian
OVCAR-4 ovarian = tested on: OVCAR-4 ovarian
OVCAR-5 ovarian = tested on: OVCAR-5 ovarian
OVCAR-8 ovarian = tested on: OVCAR-8 ovarian
PC-3 prostate = tested on: PC-3 prostate
RPMI-8226 leukemia = tested on: RPMI-8226 leukemia
RXF 393 renal = tested on: RXF 393 renal
SF-268 CNS = tested on: SF-268 CNS
SF-295 CNS = tested on: SF-295 CNS
SF-539 CNS = tested on: SF-539 CNS
SK-MEL-2 melanoma = tested on: SK-MEL-2 melanoma
SK-MEL-28 melanoma = tested on: SK-MEL-28 melanoma
SK-MEL-5 melanoma = tested on: SK-MEL-5 melanoma
SK-OV-3 ovarian = tested on: SK-OV-3 ovarian
SN12C renal = tested on: SN12C renal
SNB-19 CNS = tested on: SNB-19 CNS
SNB-75 CNS = tested on: SNB-75 CNS
SR leukemia = tested on: SR leukemia
SW-620 colon = tested on: SW-620 colon
TK-10 renal = tested on: TK-10 renal
U251 CNS = tested on: U251 CNS
UACC-257 melanoma = tested on: UACC-257 melanoma
UACC-62 melanoma = tested on: UACC-62 melanoma
UO-31 renal = tested on: UO-31 renal
A498 renal = tested on: A498 renal
HS 578T breast = tested on: HS 578T breast
MDA-MB-231 breast = tested on: MDA-MB-231 breast
MDA-MB-435 = tested on: MDA-MB-435

## CCOC(=O)C1OC(=O)CC1C1(C(=O)OCC)C=CC(=O)O1 (stereo not given)
786-0 renal
  TGI: > 100 µM
A549 NSCLC
  TGI: > 100 µM
ACHN renal
  TGI: > 100 µM
BT-549 breast
  TGI: > 100 µM
CAKI-1 renal
  TGI: > 100 µM
CCRF-CEM leukemia
  TGI: > 100 µM
COLO 205 colon
  TGI: > 100 µM
DU-145 prostate
  TGI: > 100 µM
EKVX NSCLC
  TGI: > 100 µM
HCC-2998 colon
  TGI: > 100 µM
HCT-116 colon
  TGI: > 100 µM
HCT-15 colon
  TGI: > 100 µM
HL-60(TB) leukemia
  TGI: > 100 µM
HOP-62 NSCLC
  TGI: > 100 µM
HOP-92 NSCLC
  TGI: > 100 µM
HT29 colon
  TGI: > 100 µM
IGROV1 ovarian
  TGI: > 100 µM
K-562 leukemia
  TGI: > 100 µM
KM12 colon
  TGI: > 100 µM
LOX IMVI melanoma
  TGI: 93.3 µM
M14 melanoma
  TGI: > 100 µM
MALME-3M melanoma
  TGI: > 100 µM
MCF7 breast
  TGI: > 100 µM
MDA-N
  TGI: > 100 µM
MOLT-4 leukemia
  TGI: > 100 µM
NCI-H226 lung
  TGI: > 100 µM
NCI-H23 lung
  TGI: > 100 µM
NCI-H460 lung
  TGI: 58.1 µM
NCI-H522 lung
  TGI: > 100 µM
NCI/ADR-RES ovarian
  TGI: > 100 µM
OVCAR-3 ovarian
  TGI: > 100 µM
OVCAR-4 ovarian
  TGI: > 100 µM
OVCAR-5 ovarian
  TGI: > 100 µM
OVCAR-8 ovarian
  TGI: > 100 µM
PC-3 prostate
  TGI: > 100 µM
RPMI-8226 leukemia
  TGI: > 100 µM
RXF 393 renal
  TGI: > 100 µM
SF-268 CNS
  TGI: > 100 µM
SF-295 CNS
  TGI: > 100 µM
SF-539 CNS
  TGI: > 100 µM
SK-MEL-2 melanoma
  TGI: > 100 µM
SK-MEL-28 melanoma
  TGI: > 100 µM
SK-MEL-5 melanoma
  TGI: > 100 µM
SK-OV-3 ovarian
  TGI: > 100 µM
SN12C renal
  TGI: > 100 µM
SNB-19 CNS
  TGI: > 100 µM
SNB-75 CNS
  TGI: > 100 µM
SR leukemia
  TGI: > 100 µM
SW-620 colon
  TGI: > 100 µM
TK-10 renal
  TGI: > 100 µM
U251 CNS
  TGI: > 100 µM
UACC-257 melanoma
  TGI: > 100 µM
UACC-62 melanoma
  TGI: > 100 µM
UO-31 renal
  TGI: > 100 µM

## O=c1cc(-c2ccccc2)nc(-n2[nH]c3c(c2=O)CCCC3)[nH]1
786-0 renal
  TGI: 46.3 µM
A498 renal
  TGI: > 100 µM
A549 NSCLC
  TGI: > 100 µM
ACHN renal
  TGI: 80.1 µM
BT-549 breast
  TGI: > 100 µM
CAKI-1 renal
  TGI: > 100 µM
CCRF-CEM leukemia
  TGI: 35.8 µM
COLO 205 colon
  TGI: 40.8 µM
DU-145 prostate
  TGI: 3.97 µM
EKVX NSCLC
  TGI: > 100 µM
HCT-116 colon
  TGI: 18.6 µM
HCT-15 colon
  TGI: > 100 µM
HL-60(TB) leukemia
  TGI: > 100 µM
HOP-92 NSCLC
  TGI: > 100 µM
HS 578T breast
  TGI: > 100 µM
HT29 colon
  TGI: 33.8 µM
IGROV1 ovarian
  TGI: > 100 µM
K-562 leukemia
  TGI: > 100 µM
KM12 colon
  TGI: > 100 µM
M14 melanoma
  TGI: 26.8 µM
MALME-3M melanoma
  TGI: > 100 µM
MCF7 breast
  TGI: > 100 µM
MDA-MB-231 breast
  TGI: > 100 µM
MDA-MB-435
  TGI: 89.9 µM
MDA-N
  TGI: > 100 µM
MOLT-4 leukemia
  TGI: > 100 µM
NCI-H226 lung
  TGI: > 100 µM
NCI-H23 lung
  TGI: > 100 µM
NCI-H460 lung
  TGI: > 100 µM
NCI-H522 lung
  TGI: 69.6 µM
OVCAR-4 ovarian
  TGI: 61.9 µM
OVCAR-5 ovarian
  TGI: > 100 µM
PC-3 prostate
  TGI: > 100 µM
RPMI-8226 leukemia
  TGI: 65.7 µM
RXF 393 renal
  TGI: 25.5 µM
SF-268 CNS
  TGI: > 100 µM
SF-295 CNS
  TGI: > 100 µM
SF-539 CNS
  TGI: 44.6 µM
SK-MEL-2 melanoma
  TGI: 29.4 µM
SK-MEL-28 melanoma
  TGI: 28.9 µM
SK-MEL-5 melanoma
  TGI: > 100 µM
SK-OV-3 ovarian
  TGI: > 100 µM
SN12C renal
  TGI: > 100 µM
SNB-19 CNS
  TGI: > 100 µM
SNB-75 CNS
  TGI: 14.2 µM
SR leukemia
  TGI: > 100 µM
SW-620 colon
  TGI: > 100 µM
TK-10 renal
  TGI: > 100 µM
U251 CNS
  TGI: > 100 µM
UACC-257 melanoma
  TGI: > 100 µM
UACC-62 melanoma
  TGI: 15.6 µM
UO-31 renal
  TGI: > 100 µM

## CC1CC/C(=C\c2ccc(F)cc2)C2=C1C(c1ccc(F)cc1)n1c(s/c(=C/c3cccc(Br)c3)c1=O)=N2 (stereo not given)
786-0 renal
  TGI: > 100 µM
A498 renal
  TGI: > 100 µM
A549 NSCLC
  TGI: > 100 µM
ACHN renal
  TGI: > 100 µM
CAKI-1 renal
  TGI: > 100 µM
CCRF-CEM leukemia
  TGI: > 100 µM
DU-145 prostate
  TGI: > 100 µM
EKVX NSCLC
  TGI: > 100 µM
HCT-116 colon
  TGI: > 100 µM
HCT-15 colon
  TGI: > 100 µM
HL-60(TB) leukemia
  TGI: > 100 µM
HOP-62 NSCLC
  TGI: > 100 µM
HOP-92 NSCLC
  TGI: > 100 µM
HS 578T breast
  TGI: > 100 µM
HT29 colon
  TGI: > 100 µM
IGROV1 ovarian
  TGI: > 100 µM
K-562 leukemia
  TGI: > 100 µM
KM12 colon
  TGI: > 100 µM
LOX IMVI melanoma
  TGI: > 100 µM
M14 melanoma
  TGI: > 100 µM
MCF7 breast
  TGI: > 100 µM
MDA-MB-231 breast
  TGI: > 100 µM
MDA-MB-435
  TGI: > 100 µM
MDA-N
  TGI: > 100 µM
MOLT-4 leukemia
  TGI: > 100 µM
OVCAR-5 ovarian
  TGI: > 100 µM
OVCAR-8 ovarian
  TGI: > 100 µM
PC-3 prostate
  TGI: > 100 µM
RPMI-8226 leukemia
  TGI: > 100 µM
RXF 393 renal
  TGI: > 100 µM
SF-268 CNS
  TGI: > 100 µM
SK-MEL-2 melanoma
  TGI: > 100 µM
SK-MEL-28 melanoma
  TGI: > 100 µM
SK-MEL-5 melanoma
  TGI: > 100 µM
SK-OV-3 ovarian
  TGI: > 100 µM
SN12C renal
  TGI: > 100 µM
SNB-19 CNS
  TGI: > 100 µM
SNB-75 CNS
  TGI: > 100 µM
SR leukemia
  TGI: > 100 µM
SW-620 colon
  TGI: > 100 µM
TK-10 renal
  TGI: > 100 µM
U251 CNS
  TGI: > 100 µM
UACC-257 melanoma
  TGI: > 100 µM
UACC-62 melanoma
  TGI: > 100 µM

— PubChem BioAssay (NCI)
